Data published in patent publication US20240208954A1, “OXADIAZOLE COMPOUND, PREPARATION METHOD THEREFOR, PHARMACEUTICAL COMPOSITION AND USE THEREOF” (SHANGHAI INSTITUTE OF MATERIA MEDICA, CHINESE ACADEMY OF …, priority 2020, published 2024).
Where “and” joins values, the source holds several entries; their conditions need not be identical. Equal values may be shown once. Read-outs that look alike come from different tables or passages of the source.

How the values were obtained:
[1] = Preliminary evaluation of pharmacokinetics in Beagle dogs; assay type: in vivo; conditions: for MRT inf: read-out: MRT0-∞; for Vd: read-out: Vss; for concentration at 0.083 h / concentration at 0.25 h / concentration at 0.5 h / concentration at 1 h / concentration at 2 h / concentration at 3 h / concentration at 4 h / concentration at 6 h / concentration at 8 h: read-out: Plasma drug concentration in Beagle dogs
[2] = molecular target: S1PR3 (Homo sapiens, UniProt Q99500); assay: Agonistic activity test on S1P receptors, FLIPR; assay type: cell-based
Description: Instrument: FLIPR™ TETRA (Molecular Device)
Sample processing: Before the experiment, the working solution with the corresponding concentration was prepared by diluting with GPCR dilution buffer.
After 18-20 hours, the cell culture plat was taken out and added with dye working solution, and then the plate was placed in a 37° C./5% CO2 incubator for 1 hour, and finally equilibrated at room temperature for 15 minutes. Positive agonist working solution was added, and RFU values were detected and recorded. […] The positive agonist working fluid was added to the cell culture plate at the 21st second. […] The antagonistic mode detection program, the overall detection time of the instrument was 120 seconds, and positive antagonist working solution was added to the cell culture plate at the 21st second.
Data processing: Raw data were obtained via ScreenWorks (version 3.1) and saved as *FMD files on the Kingsray computer network system. Data were collected and analyzed using Excel and GraphPad Prism 6 software programs. For each well, the average fluorescence intensity value from 1 to 20 seconds was used as the baseline, and the maximum fluorescence intensity value from 21 to 120 seconds minus the minimum fluorescence intensity value from 21 to 120 seconds was the relative fluorescence intensity value (ARFU), from which the percentage activation or inhibition can be calculated based on the following equation.
% Activation Rate=(ΔRFUCompound-ΔRFUBackground)/(ΔRFUAgonist control-ΔRFUBackground)×100%
The data was analyzed using GraphPad Prism 6 with a four-parameter equation to calculate the EC50 and IC50 values. The four-parameter equation was as follows: y=Bottom+(Top-Bottom)/(1+10^((LogEC50/IC50-X)*HillSlope)), wherein X is the Log value of the concentration and Y was the inhibition rate.

[3] = Beagle dogs, intragastric 3 mg/kg, individual animals 4-6, listed as DC411151
[4] = Beagle dogs, intravenous 0.5 mg/kg, individual animals 1-3, listed as DC411151, 0.5 mg/kg
[5] = Beagle, dog, plasma, po, 3 mg/kg, Beagle dogs, intragastric 3 mg/kg, individual animals 4-6
[6] = Beagle, dog, plasma, po, 3 mg/kg, Beagle dogs, intragastric 3 mg/kg, mean
[7] = beagle, dog, plasma, iv, 0.5 mg/kg, Beagle dogs, intravenous 0.5 mg/kg, individual animals 1-3
[8] = beagle, dog, plasma, iv, 0.5 mg/kg, Beagle dogs, intravenous 0.5 mg/kg, mean
[9] = dog, in vivo, Beagle dogs, intravenous 0.5 mg/kg, mean

Chain of S1PR3 (Q99500 whole entry, species assumed): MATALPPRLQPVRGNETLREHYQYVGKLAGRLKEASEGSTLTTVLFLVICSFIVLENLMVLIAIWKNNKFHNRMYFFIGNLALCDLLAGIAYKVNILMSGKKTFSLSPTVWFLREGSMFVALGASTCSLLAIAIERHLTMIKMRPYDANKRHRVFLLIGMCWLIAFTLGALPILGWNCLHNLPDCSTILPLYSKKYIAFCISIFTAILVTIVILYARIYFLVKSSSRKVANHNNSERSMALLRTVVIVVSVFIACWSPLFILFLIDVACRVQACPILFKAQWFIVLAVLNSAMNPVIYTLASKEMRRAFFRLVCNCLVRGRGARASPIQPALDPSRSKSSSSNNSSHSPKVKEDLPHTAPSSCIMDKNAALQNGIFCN

## CC(C)Oc1ccc(-c2nc(-c3ccc(CN4CC(C(=O)O)C4)c4ccccc34)no2)cc1C#N.Cl [Compound A1, 1-((4-(5-(3-cyano-4-isopropoxyphenyl)-1,2,4-oxadiazol-3-yl)naphthalen-1-yl)methyl) azetidine-3-carboxylic acid hydrochloric acid]
[1]; [3]
  AUC0-t: 1170 ng·h/mL and 1550 ng·h/mL and 757 ng·h/mL
  AUC0-∞: 1200 ng·h/mL and 1570 ng·h/mL and 765 ng·h/mL
  Cmax: 318 ng/mL and 539 ng/mL and 242 ng/mL
  MRT0-∞: 2.58 h and 2.44 h
  Tmax: 1 h and 0.25 h and 2 h
  t1/2: 1.32 h and 1.06 h
[1]; Beagle dogs, intravenous 0.5 mg/kg
  plasma clearance as share of dog liver blood flow (about 31 mL/min/kg): 75.2%
[1]; [4]
  AUC0-t: 317 ng·h/mL and 382 ng·h/mL
  AUC0-∞: 319 ng·h/mL and 382 ng·h/mL
  CL: 26.1 mL/min/kg and 21.8 mL/min/kg
  MRT0-∞: 0.892 h and 0.952 h
  Vss: 1.40 L/kg and 1.24 L/kg
  t1/2: 1.05 h and 0.905 h
[1]; [5]
  half-life: 1.3 h
  MRT inf: 2.93 h
[1]; [6]
  AUC(0-inf): 1180 ng·h/mL
  half-life: 1.23 h
  MRT inf: 2.65 h
[1]; Beagle, dog, plasma, po, 3 mg/kg, Beagle dogs, intragastric 3 mg/kg, mean, read-out: Tmax
  Tmax: 1.08 h
[1]; [7]
  AUC(0-inf): 379 ng·h/mL
  clearance: 22 mL/min/kg
  half-life: 0.997 h
  MRT inf: 0.91 h
  Vd: 1.2 L/kg
[1]; beagle, dog, plasma, iv, 0.5 mg/kg, Beagle dogs, intravenous 0.5 mg/kg, individual animals 1-3, read-out: AUC0-t
  AUC0-t: 375 ng·h/mL
[1]; [8]
  AUC(0-inf): 360 ng·h/mL
  MRT inf: 0.918 h
[1]; beagle, dog, plasma, iv, 0.5 mg/kg, Beagle dogs, intravenous 0.5 mg/kg, mean, read-out: AUC0-t
  AUC0-t: 358 ng·h/mL
[1]; beagle, dog, plasma, iv, 0.5 mg/kg, intravenous 0.5 mg/kg, 0.083 h, individual animals 1-3
  concentration at 0.083 h: 604 ng/mL
[1]; beagle, dog, plasma, iv, 0.5 mg/kg, intravenous 0.5 mg/kg, 0.083 h, mean
  concentration at 0.083 h: 565 ng/mL
[1]; beagle, dog, plasma, iv, 0.5 mg/kg, intravenous 0.5 mg/kg, 0.25 h, individual animals 1-3
  concentration at 0.25 h: 237 ng/mL
[1]; beagle, dog, plasma, iv, 0.5 mg/kg, intravenous 0.5 mg/kg, 0.25 h, mean
  concentration at 0.25 h: 265 ng/mL
[1]; beagle, dog, plasma, iv, 0.5 mg/kg, intravenous 0.5 mg/kg, 0.5 h, individual animals 1-3
  concentration at 0.5 h: 190 ng/mL
[1]; beagle, dog, plasma, iv, 0.5 mg/kg, intravenous 0.5 mg/kg, 0.5 h, mean
  concentration at 0.5 h: 168 ng/mL
[1]; beagle, dog, plasma, iv, 0.5 mg/kg, intravenous 0.5 mg/kg, 1 h, individual animals 1-3
  concentration at 1 h: 98.8 ng/mL
[1]; beagle, dog, plasma, iv, 0.5 mg/kg, intravenous 0.5 mg/kg, 1 h, mean
  concentration at 1 h: 90.9 ng/mL
[1]; beagle, dog, plasma, iv, 0.5 mg/kg, intravenous 0.5 mg/kg, 2 h, individual animals 1-3
  concentration at 2 h: 27.5 ng/mL
[1]; beagle, dog, plasma, iv, 0.5 mg/kg, intravenous 0.5 mg/kg, 2 h, mean
  concentration at 2 h: 30.2 ng/mL
[1]; beagle, dog, plasma, iv, 0.5 mg/kg, intravenous 0.5 mg/kg, 3 h, individual animals 1-3
  concentration at 3 h: 20.4 ng/mL
[1]; beagle, dog, plasma, iv, 0.5 mg/kg, intravenous 0.5 mg/kg, 3 h, mean
  concentration at 3 h: 17.7 ng/mL
[1]; beagle, dog, plasma, iv, 0.5 mg/kg, intravenous 0.5 mg/kg, 4 h, individual animals 1-3
  concentration at 4 h: 9.68 ng/mL
[1]; beagle, dog, plasma, iv, 0.5 mg/kg, intravenous 0.5 mg/kg, 4 h, mean
  concentration at 4 h: 9.39 ng/mL
[1]; beagle, dog, plasma, iv, 0.5 mg/kg, intravenous 0.5 mg/kg, 6 h, individual animals 1-3
  concentration at 6 h: 2.51 ng/mL
[1]; beagle, dog, plasma, iv, 0.5 mg/kg, intravenous 0.5 mg/kg, 6 h, mean
  concentration at 6 h: 2.21 ng/mL
[1]; beagle, dog, plasma, iv, 0.5 mg/kg, intravenous 0.5 mg/kg, 8 h, mean
  concentration at 8 h: 0.773 ng/mL
[1]; beagle, dog, plasma, oral, 3 mg/kg, intragastric 3 mg/kg, 0.25 h, mean
  concentration at 0.25 h: 215 ng/mL
[1]; beagle, dog, plasma, oral, 3 mg/kg, intragastric 3 mg/kg, 0.5 h, mean
  concentration at 0.5 h: 262 ng/mL
[1]; beagle, dog, plasma, oral, 3 mg/kg, intragastric 3 mg/kg, 1 h, individual animals 4-6
  concentration at 1 h: 333 ng/mL
[1]; beagle, dog, plasma, oral, 3 mg/kg, intragastric 3 mg/kg, 1 h, mean
  concentration at 1 h: 281 ng/mL
[1]; beagle, dog, plasma, oral, 3 mg/kg, intragastric 3 mg/kg, 2 h, individual animals 4-6
  concentration at 2 h: 365 ng/mL
[1]; beagle, dog, plasma, oral, 3 mg/kg, intragastric 3 mg/kg, 2 h, mean
  concentration at 2 h: 291 ng/mL
[1]; beagle, dog, plasma, oral, 3 mg/kg, intragastric 3 mg/kg, 3 h, individual animals 4-6
  concentration at 3 h: 212 ng/mL
[1]; beagle, dog, plasma, oral, 3 mg/kg, intragastric 3 mg/kg, 3 h, mean
  concentration at 3 h: 208 ng/mL
[1]; beagle, dog, plasma, oral, 3 mg/kg, intragastric 3 mg/kg, 4 h, mean
  concentration at 4 h: 111 ng/mL
[1]; beagle, dog, plasma, oral, 3 mg/kg, intragastric 3 mg/kg, 6 h, mean
  concentration at 6 h: 59.4 ng/mL
[1]; beagle, dog, plasma, oral, 3 mg/kg, intragastric 3 mg/kg, 8 h, mean
  concentration at 8 h: 10.8 ng/mL
[1]; beagle, dog, plasma, po, 3 mg/kg, Beagle dogs, 3 mg/kg by gavage, range over animals, read-out: peak time Tmax
  Tmax: 0.25 to 2 h
[1]; dog, in vivo, po, Beagle dogs, intragastric 3 mg/kg, mean, read-out: AUC0-t
  AUC0-t: 1160 ng·h/mL
[1]; dog, in vivo, po, Beagle dogs, intragastric 3 mg/kg, mean, read-out: Cmax
  Cmax: 366 ng/mL
[1]; [9]
  clearance: 23.3 mL/min/kg
  half-life: 0.984 h
  Vd: 1.28 L/kg
[1]; dog, plasma, oral, Beagle dogs, 3 mg/kg by gavage vs 0.5 mg/kg intravenous, read-out: absolute bioavailability
  bioavailability: 54%
[1]; intragastric 3 mg/kg, 0.25 h, individual animals 4-6, listed as DC411151
  Plasma drug concentration in Beagle dogs: 539 ng/mL and 93.3 ng/mL and 11.2 ng/mL
[1]; intragastric 3 mg/kg, 0.5 h, individual animals 4-6, listed as DC411151
  Plasma drug concentration in Beagle dogs: 444 ng/mL and 153 ng/mL and 188 ng/mL
[1]; intragastric 3 mg/kg, 1 h, individual animals 4-6, listed as DC411151
  Plasma drug concentration in Beagle dogs: 193 ng/mL and 318 ng/mL
[1]; intragastric 3 mg/kg, 2 h, individual animals 4-6, listed as DC411151
  Plasma drug concentration in Beagle dogs: 242 ng/mL and 266 ng/mL
[1]; intragastric 3 mg/kg, 3 h, individual animals 4-6, listed as DC411151
  Plasma drug concentration in Beagle dogs: 143 ng/mL and 269 ng/mL
[1]; intragastric 3 mg/kg, 4 h, individual animals 4-6, listed as DC411151
  Plasma drug concentration in Beagle dogs: 151 ng/mL and 62.7 ng/mL and 118 ng/mL
[1]; intragastric 3 mg/kg, 6 h, individual animals 4-6, listed as DC411151
  Plasma drug concentration in Beagle dogs: 90.3 ng/mL and 24.0 ng/mL and 64.0 ng/mL
[1]; intragastric 3 mg/kg, 8 h, individual animals 4-6, listed as DC411151
  Plasma drug concentration in Beagle dogs: 12.0 ng/mL and 4.87 ng/mL and 15.6 ng/mL
[1]; intragastric 3 mg/kg, 24 h, individual animals 4-6
  Plasma drug concentration in Beagle dogs: BQL
[1]; intravenous 0.5 mg/kg, 0.083 h, individual animals 1-3, listed as DC411151, 0.5 mg/kg
  Plasma drug concentration in Beagle dogs: 554 ng/mL and 537 ng/mL
[1]; intravenous 0.5 mg/kg, 0.25 h, individual animals 1-3, listed as DC411151, 0.5 mg/kg
  Plasma drug concentration in Beagle dogs: 219 ng/mL and 340 ng/mL
[1]; intravenous 0.5 mg/kg, 0.5 h, individual animals 1-3, listed as DC411151, 0.5 mg/kg
  Plasma drug concentration in Beagle dogs: 138 ng/mL and 176 ng/mL
[1]; intravenous 0.5 mg/kg, 1 h, individual animals 1-3, listed as DC411151, 0.5 mg/kg
  Plasma drug concentration in Beagle dogs: 76.9 ng/mL and 97.1 ng/mL
[1]; intravenous 0.5 mg/kg, 2 h, individual animals 1-3, listed as DC411151, 0.5 mg/kg
  Plasma drug concentration in Beagle dogs: 27.8 ng/mL and 35.4 ng/mL
[1]; intravenous 0.5 mg/kg, 3 h, individual animals 1-3, listed as DC411151, 0.5 mg/kg
  Plasma drug concentration in Beagle dogs: 12.5 ng/mL and 20.3 ng/mL
[1]; intravenous 0.5 mg/kg, 4 h, individual animals 1-3, listed as DC411151, 0.5 mg/kg
  Plasma drug concentration in Beagle dogs: 7.88 ng/mL and 10.6 ng/mL
[1]; intravenous 0.5 mg/kg, 6 h, individual animals 1-3, listed as DC411151, 0.5 mg/kg
  Plasma drug concentration in Beagle dogs: 1.64 ng/mL and 2.47 ng/mL
[1]; intravenous 0.5 mg/kg, 8 h, individual animals 1-3, listed as DC411151, 0.5 mg/kg
  Plasma drug concentration in Beagle dogs: BQL and 1.05 ng/ml and 0.496 ng/ml
[2]; FLIPR agonist mode, read-out: S1PR3 EC50
  EC50: > 10 µM
[2]; subtype selectivity study, read-out: S1P3 EC50
  EC50: > 10 µM
